Read-outs that look alike come from different tables or passages of the source.
Experiments:
HCV GT1b(Con1) replicon = test: HCV replicon luciferase reporter assay, genotype 1b; type: cell-based, HCV genotype 1b; details: Hepatitis C virus, 72 h, HUH-7 cells, 3 days incubation
Excerpt: An HCV GT1b(Con1) replicon cell system was established as described by Lohmann V, Korner F, Koch J, Herian U, Theilmann L, Bartenschlager R., Science 285(5424):110-3 (1999) and modified to introduce a luciferase reporter (Krieger N, Lohmann V, and Bartenschlager R, J. Virol. 75(10):4614-4624 (2001)). cDNA encoding a humanized form of the Renilla luciferase gene, and a linker sequence fused directly to the 3′-end of the luciferase gene were introduced into the replicon construct using an Asc1 restriction site located in core, directly upstream of the neomycin marker gene. The adaptive mutation at position 1179 (serine to isoleucine) was also introduced (Blight K J, Kolykhalov, A A, Rice, C M, Science 290(5498):1972-1974). A stable cell line constitutively expressing this HCV replicon construct was generated by first linearizing plasmid DNAs with ScaI. RNA transcripts were synthesized in vitro using the T7 MegaScript transcription kit (Ambion, Austin, Tex.) according to manufacturer's directions. In vitro transcripts of the cDNA were transfected into the human hepatoma cell line, HUH-7. […] Resulting cell lines were characterized for positive and negative strand RNA production and protein production over time.
(§1) HCV replicon luciferase assays were developed to monitor the inhibitory effects of compounds described in the disclosure on HCV genotypes 1a and 1b viral replication. HUH-7 cells, constitutively expressing the HCV replicon, were grown in Dulbecco's Modified Eagle Media (DMEM) (Gibco-BRL) containing 10% Fetal calf serum (FCS) (Sigma) and 1 mg/mL G418 (Gibco-BRL). Compounds were serially diluted 3 folds in DMSO for a twenty-point titration and subsequently transferred to sterile 384-well tissue-culture treated plates (Corning cat #3571). The plates were then seeded with 50 μL of cells at a density of 3.0×10^3 cells/well in DMEM containing 4% FCS (final DMSO concentration at 0.5%). After 3 days incubation at 37° C., cells were analyzed for Renilla Luciferase activity using the EnduRen as substrate (Promega cat #E6485). The EnduRen substrate was diluted in DMEM and then added to the plates to a final concentration of 7.5 μM. The plates were incubated for 2 hrs at 37° C. and then read immediately for 30 seconds with Viewlux Imager (PerkinElmer) using a luminescence program. To assess cytotoxicity of compounds, CC50 values were generated by multiplexing the EnduRen-containing plates with Cell Titer-Blue (Promega, cat # G8082). Cell-Titer Blue (3 μL) was added to each well and incubated for 8 hrs at 37° C. The fluorescence signal from each well was read, with an excitation wavelength at 525/10 nm and an emission wavelength of 598/10 nm, using the Viewlux Imager.
(§2) The EC50 values for compounds were calculated by using a four-parameter logistic equation: y=A+((B−A)/(1+((C/x)^D))), where A and B denotes minimal and maximal % inhibition, respectively, C is the EC50, D is the hill slope and x represents compound concentration.

HCV GT1a(H77) replicon = test: HCV replicon luciferase reporter assay, genotype 1a; type: cell-based, HCV genotype 1a; details: Hepatitis C virus, 72 h, HUH-7 cells, 3 days incubation
Excerpt: A stable HCV GT1a(H77) replicon luciferase reporter cell line (Yanagi M, Purcell R H, Emerson S U, et al. Transcripts from a single full-length cDNA clone of hepatitis C virus are infectious when directly transfected into the liver of a chimpanzee. Proc Natl Acad Sci USA 1997; 94(16):8738-8743) was generated as described previously for the genotype 1b(Con1) replicon luciferase cell line. The replicon construct was modified by introducing mutations into the genes encoding the NS3 helicase domain (proline replaced by leucine at position 1496) and NS5A (serine to isoleucine at position 2204) to improve replication in cell culture.
as §1, §2

| Structure (SMILES) | EC50 (HCV GT1b(Con1) replicon; read-out: LE_1b (EC50, range)) [nM] | EC50 (HCV GT1a(H77) replicon; read-out: LE_1a (EC50, range)) [nM] | EC50 (HCV GT1b(Con1) replicon; read-out: LE_1b (EC50)) [nM] | EC50 (HCV GT1a(H77) replicon; read-out: LE_1a (EC50)) [nM] |
| --- | --- | --- | --- | --- |
| C[C@@H]1CC/C=C\[C@@H]2C[C@@]2(C(=O)NS(=O)(=O)C2(CF)CC2)NC(=O)[C@@H]2C[C@@H](OC(=O)c3ccccc3C(F)(F)F)CN2C(=O)[C@@H](NC(=O)OC(C)(C)C(F)(F)F)[C@H](C)C1 [Compound 1002, (2R,6S,7R,9R,13aS,14aR,16aS,Z)-14a-(((1-(fluoromethyl)cyclopropyl)sulfonyl)carbamoyl)-7,9-dimethyl-5,16-dioxo-6-((((1,1,1-trifluoro-2-methylpropan-2-yl)oxy)carbonyl)amino)-1,2,3,5,6,7,8,9,10,11,13a,14,14a,15,16,16a-hexadecahydrocyclopropa[e]pyrrolo[1,2-a][1,4]diazacyclopentadecin-2-yl 2-(trifluoromethyl)benzoate] | 1.01 to 5 | 5.01 to 35 |  |  |
| COc1ccc(C(=O)O[C@@H]2C[C@H]3C(=O)N[C@]4(C(=O)NS(=O)(=O)C5(C)CC5)C[C@H]4/C=C\CC[C@@H](C)C[C@@H](C)[C@H](NC(=O)OC(C)(C)C)C(=O)N3C2)cc1 [Compound 1003, (2R,6S,7R,9R,13aS,14aR,16aS,Z)-6-((tert-butoxycarbonyl)amino)-7,9-dimethyl-14a-(((1-methylcyclopropyl)sulfonyl)carbamoyl)-5,16-dioxo-1,2,3,5,6,7,8,9,10,11,13a,14,14a,15,16,16a-hexadecahydrocyclopropa[e]pyrrolo[1,2-a][1,4]diazacyclopentadecin-2-yl 4-methoxybenzoate] | 5.01 to 35 | 5.01 to 35 |  |  |
| COc1ccc(C(=O)O[C@@H]2C[C@H]3C(=O)N[C@]4(C(=O)NS(=O)(=O)C5(C)CC5)C[C@H]4/C=C\CC[C@@H](C)C[C@@H](C)[C@H](NC(=O)OC(C)(C)C(F)(F)F)C(=O)N3C2)cc1 [Compound 1005, (2R,6S,7R,9R,13aS,14aR,16aS,Z)-7,9-dimethyl-14a-(((1-methylcyclopropyl)sulfonyl)carbamoyl)-5,16-dioxo-6-((((1,1,1-trifluoro-2-methylpropan-2-yl)oxy)carbonyl)amino)-1,2,3,5,6,7,8,9,10,11,13a,14,14a,15,16,16a-hexadecahydrocyclopropa[e]pyrrolo[1,2-a][1,4]diazacyclopentadecin-2-yl 4-methoxybenzoate] | 0.51 to 1 | 1.01 to 5 | 0.75 | 1.15 |
| C[C@@H]1CC/C=C\[C@@H]2C[C@@]2(C(=O)NS(=O)(=O)C2(CF)CC2)NC(=O)[C@@H]2C[C@@H](OC(=O)c3ccc4ccccc4c3)CN2C(=O)[C@@H](NC(=O)OC(C)(C)C(F)(F)F)[C@H](C)C1 [Compound 1006] | 1.01 to 5 | 1.01 to 5 |  |  |
| COc1ccccc1C(=O)O[C@@H]1C[C@H]2C(=O)N[C@]3(C(=O)NS(=O)(=O)C4(CF)CC4)C[C@H]3/C=C\CC[C@@H](C)C[C@@H](C)[C@H](NC(=O)OC(C)(C)C(F)(F)F)C(=O)N2C1 [Compound 1008, (2R,6S,7R,9R,13aS,14aR,16aS,Z)-14a-(((1-(fluoromethyl)cyclopropyl)sulfonyl)carbamoyl)-7,9-dimethyl-5,16-dioxo-6-((((1,1,1-trifluoro-2-methylpropan-2-yl)oxy)carbonyl)amino)-1,2,3,5,6,7,8,9,10,11,13a,14,14a,15,16,16a-hexadecahydrocyclopropa[e]pyrrolo[1,2-a][1,4]diazacyclopentadecin-2-yl 2-methoxybenzoate] | 1.01 to 5 | 5.01 to 35 |  |  |
| C[C@@H]1CC/C=C\[C@@H]2C[C@@]2(C(=O)NS(=O)(=O)C2(CF)CC2)NC(=O)[C@@H]2C[C@@H](OC(=O)c3cccc(F)c3)CN2C(=O)[C@@H](NC(=O)OC(C)(C)C(F)(F)F)[C@H](C)C1 [Compound 1010, (2R,6S,7R,9R,13aS,14aR,16aS,Z)-14a-(((1-(fluoromethyl)cyclopropyl)sulfonyl)carbamoyl)-7,9-dimethyl-5,16-dioxo-6-((((1,1,1-trifluoro-2-methylpropan-2-yl)oxy)carbonyl)amino)-1,2,3,5,6,7,8,9,10,11,13a,14,14a,15,16,16a-hexadecahydrocyclopropa[e]pyrrolo[1,2-a][1,4]diazacyclopentadecin-2-yl 3-fluorobenzoate] | 1.01 to 5 | 5.01 to 35 |  |  |
| C[C@@H]1CC/C=C\[C@@H]2C[C@@]2(C(=O)NS(=O)(=O)C2(CF)CC2)NC(=O)[C@@H]2C[C@@H](OC(=O)c3ccc4c(c3)OCO4)CN2C(=O)[C@@H](NC(=O)OC(C)(C)C(F)(F)F)[C@H](C)C1 [Compound 1011, (2R,6S,7R,9R,13aS,14aR,16aS,Z)-14a-(((1-(fluoromethyl)cyclopropyl)sulfonyl)carbamoyl)-7,9-dimethyl-5,16-dioxo-6-((((1,1,1-trifluoro-2-methylpropan-2-yl)oxy)carbonyl)amino)-1,2,3,5,6,7,8,9,10,11,13a,14,14a,15,16,16a-hexadecahydrocyclopropa[e]pyrrolo[1,2-a][1,4]diazacyclopentadecin-2-yl benzo[d][1,3]dioxole-5-carboxylate] | 1.01 to 5 | 5.01 to 35 | 1.68 | 7.98 |
| C[C@H]1CC/C=C\[C@@H]2C[C@@]2(C(=O)NS(=O)(=O)C2(C)CC2)NC(=O)[C@@H]2C[C@@H](OC(=O)c3ccc4c(c3)OCCO4)CN2C(=O)[C@@H](NC(=O)OC(C)(C)C)[C@H](C)C1 [Compound 1012, (2R,6S,7R,9S,13aS,14aR,16aS,Z)-6-((tert-butoxycarbonyl)amino)-7,9-dimethyl-14a-(((1-methylcyclopropyl)sulfonyl)carbamoyl)-5,16-dioxo-1,2,3,5,6,7,8,9,10,11,13a,14,14a,15,16,16a-hexadecahydrocyclopropa[e]pyrrolo[1,2-a][1,4]diazacyclopentadecin-2-yl 2,3-dihydrobenzo[b][1,4]dioxine-6-carboxylate] | 1.01 to 5 | 5.01 to 35 |  |  |
| C[C@@H]1CC/C=C\[C@@H]2C[C@@]2(C(=O)NS(=O)(=O)C2(C)CC2)NC(=O)[C@@H]2C[C@@H](OC(=O)c3ccc4c(c3)OCCO4)CN2C(=O)[C@@H](NC(=O)OC(C)(C)C)[C@H](C)C1 [Compound 1013, (2R,6S,7R,9R,13aS,14aR,16aS,Z)-6-((tert-butoxycarbonyl)amino)-7,9-dimethyl-14a-(((1-methylcyclopropyl)sulfonyl)carbamoyl)-5,16-dioxo-1,2,3,5,6,7,8,9,10,11,13a,14,14a,15,16,16a-hexadecahydrocyclopropa[e]pyrrolo[1,2-a][1,4]diazacyclopentadecin-2-yl 2,3-dihydrobenzo[b][1,4]dioxine-6-carboxylate] | 1.01 to 5 | 1.01 to 5 |  |  |
| C[C@@H]1CC/C=C\[C@@H]2C[C@@]2(C(=O)NS(=O)(=O)C2(C)CC2)NC(=O)[C@@H]2C[C@@H](OC(=O)c3ccc4c(c3)OCCO4)CN2C(=O)[C@@H](NC(=O)OC(C)(C)C(F)(F)F)[C@H](C)C1 [Compound 1015, (2R,6S,7R,9R,13aS,14aR,16aS,Z)-7,9-dimethyl-14a-(((1-methylcyclopropyl)sulfonyl)carbamoyl)-5,16-dioxo-6-((((1,1,1-trifluoro-2-methylpropan-2-yl)oxy)carbonyl)amino)-1,2,3,5,6,7,8,9,10,11,13a,14,14a,15,16,16a-hexadecahydrocyclopropa[e]pyrrolo[1,2-a][1,4]diazacyclopentadecin-2-yl 2,3-dihydrobenzo[b][1,4]dioxine-6-carboxylate] | 1.01 to 5 | 5.01 to 35 |  |  |
| C[C@@H]1CC/C=C\[C@@H]2C[C@@]2(C(=O)NS(=O)(=O)C2(C)CC2)NC(=O)[C@@H]2C[C@@H](OC(=O)Nc3ccccc3C(F)(F)F)CN2C(=O)[C@@H](NC(=O)OC(C)(C)C)[C@H](C)C1 [Compound 1302] | 1.01 to 5 | 5.01 to 35 |  |  |

— US9409943B2 (Bristol-Myers Squibb Company, priority 2012, dated 2016)
